Here are results for eight molecules from patent US8519184B2, “Synthesis of rare earth metal extractant” (Shin-Etsu Chemical Co., Ltd., priority 2010, dated 2013).

A short description of data set [1]: Extractant state of reaction product. To be noted: Table 2; reaction product at varied B/A (dioctylamine/diglycolic anhydride). The data set is classed as physicochemical. The protocol:
An amount (designated A in Table 2) of diglycolic anhydride was suspended in 40 mL of hexane. Separately, an amount (designated B in Table 2) of dioctylamine was dissolved in 10 mL of hexane. With stirring, the dioctylamine solution was added dropwise to the diglycolic anhydride suspension. Stirring was continued at room temperature until it was confirmed that the solution became clear as a result of reaction of diglycolic anhydride. The reaction product was obtained in hexane solution. Table 2 also reports a ratio B/A that is a ratio of the amount (B mmol) of dioctylamine to the amount (A mmol) of diglycolic anhydride.
An aqueous solution containing mixed rare earth metals was prepared by dissolving praseodymium chloride and neodymium chloride in water in a molar ratio Pr:Nd of 1:1 and a concentration of 0.1 mol/L of Pr+Nd to form an aqueous solution, which might become an aqueous phase. A separatory funnel was charged with 100 mL of the organic solution and 100 mL of the aqueous solution and shaken at 20° C. for about 20 minutes to effect extraction. After equilibrium was reached, the liquid was allowed to separate into organic and aqueous phases. A separatory funnel was charged with 100 mL of the thus separated organic phase and 100 mL of 5N hydrochloric acid and shaken at 20° C. for about 20 minutes whereby the rare earth element once extracted into the organic phase was back-extracted into the aqueous hydrochloric acid solution. The concentrations of praseodymium and neodymium in the aqueous phase and the back-extracted aqueous hydrochloric acid solution were measured by an ICP atomic emission spectrometer ICP-7500 (Shimadzu Corp.).

Data set [2] can be described thus: Extraction/separation test (solvent extraction, Nd/Pr). Particulars: 20° C.
Experimental: An extraction/separation test was performed. […] The reaction product solution was diluted with hexane to form an organic solution having a DODGAA concentration of 0.3 mol/L, which might become an organic phase.
An extraction/separation test was performed. The concentration of DODGAA in the reaction product solution was computed from the amounts of reactants and synthesis medium. The reaction product solution was diluted with hexane to form an organic solution having a DODGAA concentration of 0.3 mol/L, which might become an organic phase. […]
An aqueous solution containing mixed rare earth metals was prepared by dissolving praseodymium chloride and neodymium chloride in water in a molar ratio Pr:Nd of 1:1 and a concentration (mol/L) of Pr+Nd as shown in Table 4 to form an aqueous solution which might become an aqueous phase. […] The concentrations of praseodymium and neodymium in the aqueous phase and the back-extracted aqueous hydrochloric acid solution were measured by an ICP atomic emission spectrometer ICP-7500 (Shimadzu Corp.).
The conditions of data set [3]: cited from earlier work.
The mark [4] stands for this setting: Table 1, DODGAA 0.3 mol/L in hexane organic phase, Pr+Nd 0.1 mol/L aqueous, about 20 minutes.

In brackets after ≈: the same amount, converted by molar mass.

For `CCCCCCCCN(CCCCCCCC)C(=O)COCC(=O)O` [Example 5, N,N-dioctyl-3-oxapentane-1,5-amic acid], the Extractant state result in data set [1] is listed as “solid”.
As for `CCCCCCCCN(CCCCCCCC)C(=O)COCC(=O)O` [Example 3, N,N-dioctyl-3-oxapentane-1,5-amic acid], in data set [2] (Table 2, varied B/A, DODGAA 0.3 mol/L in hexane, Pr+Nd 0.1 mol/L), the Nd/Pr separation factor result was “satisfactory”. Besides, the Extractant state entry in data set [1] is listed as “liquid”.
On to `CCCCCCCCN(CCCCCCCC)C(=O)COCC(=O)O` [Comparative Example 2, N,N-dioctyl-3-oxapentane-1,5-amic acid], for which the Extractant state result in data set [1] is on record as “liquid”.
Regarding `CCCCCCCCN(CCCCCCCC)C(=O)COCC(=O)O` [Example 1, N,N-dioctyl-3-oxapentane-1,5-amic acid], the Nd/Pr separation factor entry in data set [2] (setting [4]) is “satisfactory”.
As to `CCCCCCCCN(CCCCCCCC)C(=O)COCC(=O)O` [DODGAA, N,N-dioctyl-3-oxapentane-1,5-amic acid], the solubility in water in data set [3] is 6.2 µM (≈ 2.22 µg/mL).
As for `CCCCCCCCN(CCCCCCCC)C(=O)COCC(=O)O` [Comparative Example 1, N,N-dioctyl-3-oxapentane-1,5-amic acid], the Nd/Pr separation factor result in data set [2] (setting [4]) was “satisfactory”.
As to `CCCCCCCCN(CCCCCCCC)C(=O)COCC(=O)O` [Example 4, N,N-dioctyl-3-oxapentane-1,5-amic acid], the Extractant state entry in data set [1] is listed as “liquid”.
Same read-out and setting: for `CCCCCCCCN(CCCCCCCC)C(=O)COCC(=O)O` [Example 2, N,N-dioctyl-3-oxapentane-1,5-amic acid] the value was “liquid”.
